Experimental data published in ChEMBL document CHEMBL1134016, “Different antagonist binding properties of human and rat histamine H3 receptors” (Bioorg Med Chem Lett, 2001).

Tests used:
Histamine H3 receptor [1] = target: T1, Histamine H3 receptor (Rattus norvegicus, UniProt Q9QYN8); experiment: biochemical; format: cell-based, CHO-K1
Description: Inhibition of [125I]iodoproxyfan from rat histamine H3 receptor expressed in CHO-K1 cells

Histamine H3 receptor [2] = target: T2, Histamine H3 receptor (Homo sapiens, UniProt Q9Y5N1); experiment: biochemical; format: cell-based, CHO-K1
Description: Inhibition of [125I]iodoproxyfan binding to human histamine H3 receptor of CHO-K1 cells

Histamine H3 receptor [3] = target: T2, Histamine H3 receptor; experiment: Ratio of binding affinity of rat histamine H3 receptor to that of human histamine H3 receptor;1:10
Histamine H3 receptor [4] = target: T2, Histamine H3 receptor; experiment: Ratio of binding affinity of rat histamine H3 receptor to that of human histamine H3 receptor; 1:12
Histamine H3 receptor [5] = target: T1, Histamine H3 receptor; experiment: Binding affinity to rat Histamine H3 receptor in CHO-K1 cells using [125I]iodoproxyfan as radioligand; format: cell-based
Histamine H3 receptor [6] = target: T2, Histamine H3 receptor; experiment: Ratio of binding affinity of rat histamine H3 receptor to that of human histamine H3 receptor;1:6
Histamine H3 receptor [7] = target: T2, Histamine H3 receptor; experiment: Ratio of binding affinity of rat histamine H3 receptor to that of human histamine H3 receptor; 1:3

T1 sequence (Q9QYN8 whole entry): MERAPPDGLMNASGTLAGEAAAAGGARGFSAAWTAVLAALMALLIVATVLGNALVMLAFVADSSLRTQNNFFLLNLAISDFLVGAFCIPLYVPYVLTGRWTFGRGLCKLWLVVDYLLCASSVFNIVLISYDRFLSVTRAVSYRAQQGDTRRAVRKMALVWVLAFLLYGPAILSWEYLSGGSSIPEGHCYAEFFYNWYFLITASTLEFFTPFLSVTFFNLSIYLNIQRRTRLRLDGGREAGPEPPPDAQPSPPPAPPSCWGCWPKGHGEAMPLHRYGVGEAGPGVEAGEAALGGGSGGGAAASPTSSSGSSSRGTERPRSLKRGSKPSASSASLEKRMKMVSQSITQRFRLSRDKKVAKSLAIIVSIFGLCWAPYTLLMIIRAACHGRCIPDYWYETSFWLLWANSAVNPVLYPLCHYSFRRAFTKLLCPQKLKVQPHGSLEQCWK
T2 sequence (Q9Y5N1 whole entry): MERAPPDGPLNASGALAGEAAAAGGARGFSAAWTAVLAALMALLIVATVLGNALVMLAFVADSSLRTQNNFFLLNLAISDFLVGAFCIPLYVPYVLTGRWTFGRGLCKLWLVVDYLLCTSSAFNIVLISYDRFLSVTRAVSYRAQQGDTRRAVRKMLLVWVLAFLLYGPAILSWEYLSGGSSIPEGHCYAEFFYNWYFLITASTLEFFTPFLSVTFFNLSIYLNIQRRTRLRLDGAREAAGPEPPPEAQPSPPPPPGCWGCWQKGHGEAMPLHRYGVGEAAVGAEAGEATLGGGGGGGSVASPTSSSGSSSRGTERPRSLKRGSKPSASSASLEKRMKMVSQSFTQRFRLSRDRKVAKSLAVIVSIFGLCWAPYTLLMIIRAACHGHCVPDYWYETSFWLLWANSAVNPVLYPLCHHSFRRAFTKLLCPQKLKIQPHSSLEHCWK

| SMILES | Ki (Histamine H3 receptor [1]) [nM] | Ki (Histamine H3 receptor [2]) [nM] | also measured |
| --- | --- | --- | --- |
| CC(=O)c1ccc(OCCc2cnc[nH]2)cc1 | 3.6 | 42 | – |
| CC(=O)c1ccc(SCCc2c[nH]cn2)cc1 | – | – | Ratio (Histamine H3 receptor [3]): 10 |
| CC(=O)c1ccc(OCCc2c[nH]cn2)cc1 | – | – | Ratio (Histamine H3 receptor [4]): 12 |
| CC(=O)c1ccc(SCCc2cnc[nH]2)cc1 | 0.11 | 1.1 | – |
| S=C(NC1CCCCC1)N1CCC(c2cnc[nH]2)CC1 [THIOPERAMIDE] | – | – | Ki (Histamine H3 receptor [5]): 6.5 nM |
| c1ccc(COCCCc2c[nH]cn2)cc1 [PROXYFAN] | 2.9 | 2.7 | – |
| CC(=O)c1ccc(OCCCCc2cnc[nH]2)cc1 | 36 | 19 | – |
| c1ccc(OCCCc2c[nH]cn2)cc1 | – | 27 | – |
| CC(=O)c1ccc(SCCCc2c[nH]cn2)cc1 | 44 | 18 | – |

Continued, in another order:

| Ki (Histamine H3 receptor [1]) [nM] | Ki (Histamine H3 receptor [2]) [nM] | SMILES | also measured |
| --- | --- | --- | --- |
| 3.9 | – | O=C(c1ccc(OCCCc2cnc[nH]2)cc1)C1CC1 [CIPROXIFAN] | – |
| 7.9 | 47 | COc1ccc(OCCCc2c[nH]cn2)cc1 | Ratio (Histamine H3 receptor [6]): 6 |
| 71 | 41 | Ic1ccc(COCCCc2c[nH]cn2)cc1 [IODOPROXYFAN] | – |
| 29 | 87 | CC(=O)c1ccc(OCCCc2c[nH]cn2)cc1 | Ratio (Histamine H3 receptor [7]): 3 |
